≈ marks a conversion by molar mass, not a printed value.
Columns and labels:
[1] = biological target: F. tularensis FabI (Francisella tularensis subsp. tularensis, UniProt Q5NGQ3); type: biochemical
[2] = tested on: F. tularensis; test: microbe, parasite or virus in culture; type: cell-based; details: Francisella tularensis
[3] = tested on: E.coli (BW251113); type: cell-based
[4] = tested on: E.coli TolC mutant (BW251113-TolC-); type: cell-based

F. tularensis FabI, sequence (Q5NGQ3 1-260): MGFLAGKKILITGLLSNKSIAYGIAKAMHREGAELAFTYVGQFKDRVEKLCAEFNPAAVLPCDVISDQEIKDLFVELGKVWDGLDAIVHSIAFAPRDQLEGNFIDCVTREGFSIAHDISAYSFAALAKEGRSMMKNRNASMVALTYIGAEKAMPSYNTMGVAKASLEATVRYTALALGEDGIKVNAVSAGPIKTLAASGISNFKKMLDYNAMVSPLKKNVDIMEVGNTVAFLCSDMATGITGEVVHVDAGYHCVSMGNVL

SMILES | L.E. (Ligand Efficiency) [1] | fold increase in activity (IC50) over hit compound 2 [1] [fold] | MIC [2] [mg/L] | MIC [3] | MIC [4]
Nc1ncc(Cc2ccc(Cl)cc2)s1 [Compound 1] | 0.41 |  |  |  | 
Clc1ccc(Cn2cnc3ccccc32)cc1 [Compound 2, 1-(4-chlorobenzyl) benzimidazole] | 0.37 |  |  |  | 
Clc1ccc(Cn2cnc3ccccc32)cc1Cl [Compound 6] |  | ~10 | 15.6 (≈ 56.3 µM) |  | 
Cc1cc2ncn(Cc3ccc(Cl)c(Cl)c3)c2cc1C [Compound 9] |  | 100 |  | >200 (3) μg/mL | 6.25 (3) μg/mL

From publication PMC3266168 (Journal of Medicinal Chemistry, 2011)
